# Data taken from US20260069584A1, “METHODS OF TREATING CHRONIC MYELOID LEUKEMIA USING THE TYROSINE KINASE INHIBITOR VODOBATINIB” (Sun Pharma Advanced Research Company Ltd., priority 2022, published 2026).
# System: Ph+ CML (CP CML, AP CML and BP CML) and Ph+ ALL
# Assay: Phase 1/2 dose-escalation and expansion study (Part B): disease response, all subjects
# Format: in vivo
# From the text: This was a Phase I/2, open-label, single-agent, multicenter, multi-dose, dose-escalation study in subjects with Philadelphia chromosome-positive Ph+ CML (CP CML, AP CML and BP CML) and Ph+ ALL. The primary objectives of this study were to determine the maximum tolerated dose (MTD; or recommended Phase 2 dose [RP2D]) of the compound of Formula I when administered orally and to evaluate its safety.
# For patient selection, key inclusion criteria included men or women aged ≥18 years with Eastern Cooperative Oncology Group performance status 0, 1, or 2 with Ph+ CML (CP CML, AP CML, or BP CML) who are resistant and/or intolerant to ≥3 prior TKIs, having adequate organ and immune system function as indicated by Table 09, obtained ≤2 weeks prior to the administration of the compound of Formula I. Subjects with presence of T3151 mutations were not included in the study.
# In this study, the dose-escalation cohort started with an accelerated titration study design (ATD) and shifted to a 3±3 design when subjects in the preceding ATD cohort experienced either grade 2 or higher adverse events (AEs) or dose-limiting toxicity (DLT) during Cycle 1 that was not clearly and incontrovertibly related to the underlying disease or concomitant medications. The DLT period consisted of 28 days (Cycle 1). Subjects experiencing DLTs were managed with dose delays and/or discontinuation and continued in the study until disease progression. Decisions to advance to a succeeding dose level occurred after the evaluation of safety and tolerability data for a given dose level.
# Accordingly, the eligible subjects were treated in 4-week cycles of once daily self-administration of the compound of Formula I. The administration was after an overnight fast, or after maintaining approximately 2 hours of fasting before and after the dosing in all cycles.
# For the cohorts, where the 3±3 design applies, 3 subjects were enrolled initially. If 2 of these subjects experienced a Grade 2 or more toxicity (that was not clearly and incontrovertibly related to the underlying disease or concomitant medications), subsequent cohorts were escalated according to smaller increments. Further, if there were no DLTs in the first 3 subjects, dose escalation to the next higher dose level was allowed to proceed. If 1 of the 3 subjects experienced a DLT, that dose level was expanded to 6 subjects (3 additional subjects were enrolled). If 2 subjects at a given dose level experienced a DLT, the MTD was considered to have been exceeded. The next lower dose level was expanded to 6 subjects, or if 6 subjects had already been enrolled and no more than 1 of the 6 subjects experienced a DLT, then this lower dose level was considered the MTD. Additional subjects were enrolled in dose escalation cohorts for further assessment of safety and efficacy of the compound of Formula 1 at doses that were tolerated (i.e., doses that have <2 DLTs in 6 enrolled subjects or <1 DLT in 3 enrolled subjects). Thus 204 mg was arrived at as MTD. A subject experiencing a DLT was allowed to continue therapy with a reduced dose. Subjects who experienced a DLT and recovered were treated at the next lower dose level until disease progression or other events requiring further dose reduction existed. For cohorts at Dose Level 2 or higher, a further dose reduction (i.e., up to 2 levels lower than their originally assigned dose) was implemented in the case of a further DLT or other non-DLT events requiring a dose reduction, if and when the event leading to dose reduction returned to Grade 1 or lower in severity. The reduced dose was re-escalated to the original or higher dose (i.e., the dose for which safety had been established in the dose escalation cohort) considering subject safety and response to the compound of Formula I. The subject was discontinued from treatment using the compound of Formula I, if dose reduction below 48 mg was required. […]
structure (smiles),measurement,setting,value
"Cc1ccc(C(=O)NNC(=O)c2c(C)cccc2Cl)cc1C#Cc1cnc2ccccc2c1 [compound of Formula I, N′-(2-chloro-6-methylbenzoyl)-4-methyl-3-[2-(3-quinolyl)ethynyl]-benzohydrazide]",major molecular response,18 of the 41 enrolled subjects,43.9%
same,Major cytogenetic response (MCyR) as best response,19 subjects enrolled at 174 mg,10 subjects
same,complete cytogenetic response (CCyR),19 subjects enrolled at 174 mg,9 subjects
same,major hematological response (MaHR) as best response,19 subjects enrolled at 174 mg,all subjects
same,major molecular response as best response,19 subjects enrolled at 174 mg,4 subjects
same,partial cytogenetic response (PCyR),19 subjects enrolled at 174 mg,1 subjects
same,complete cytogenetic response,23 out of 41 enrolled subjects,56.1%
same,complete hematologic response,"29 out of 41 enrolled subjects, refractory, 2 or more prior TKIs",70.7%
same,individual subject outcome,"AP CML, 48 mg escalated, ~24 months, daily dose of 174 mg",attained MCyR
same,individual subject outcome,"CP CML, 12 mg escalated to 174 mg",achieved and maintained CCyR at doses ≥48 mg
same,individual subject outcome,"CP CML, 24 mg escalated to 126 mg and 174 mg",maintain CCyR and molecular response between MMR and M2
same,individual subject outcome,"CP CML, 126 mg reduced to 90 and 66 mg (thrombocytopenia), re-escalated to 126 mg and 174 mg",tolerated the re-escalated higher dose well
same,individual subject outcome,"CP CML, 174 mg reduced to 126 mg (grade 3/4 deranged pancreatic enzymes)",complete cytogenetic response and major molecular response
same,individual subject outcome,"CP CML, 204 mg reduced to 174 mg (memory loss)",maintains a complete cytogenetic response and major molecular response
same,individual subject outcome,"CP CML, 204 mg reduced to 174 mg (severe thrombocytopenia)",partial cytogenetic response and improved molecular response
same,individual subject outcome,"CP CML, 3 prior TKIs incl. Ponatinib, 48 mg escalated to 174 mg",re-attained major molecular and cytogenetic responses
same,individual subject outcome,"CP CML, 4 prior TKIs, 48 mg escalated to 90 mg and 174 mg",maintain complete cytogenetic and major molecular responses
same,individual subject outcome,"CP CML, 4 prior TKIs, 66 mg escalated to 90 mg",Ph+ cells decreased to minimal cytogenetic response
same,individual subject outcome,"CP CML, 6 prior TKIs, 174 mg escalated to 204 mg",improvement in cytogenetic response to minor cytogenetic response
same,individual subject outcome,"CP CML, F317L, 66 mg reduced to 48 mg (back pain of grade 2)",maintained CCyR and MMR at 48 mg dose for ˜2.5 years
same,individual subject outcome,"CP CML, M351T, 174 mg escalated to 204 mg at cycle 7, cycle 22",maintaining a complete hematological response and stable disease
same,individual subject outcome,"donor one CP CML, 2 prior TKIs, 174 mg escalated to 204 mg",maintaining a hematological response
same,individual subject outcome,"donor two CP CML, 2 prior TKIs, 174 mg escalated to 204 mg",improvement in cytogenetic response to partial cytogenetic response and improved molecular response
same,highest efficacious dose,"human, in vivo",204 mg
same,lowest dose observed to be therapeutically efficacious,"human, in vivo",48 mg
same,"best cytogenetic response, Ph+","one AP CML subject, Y253F, 48 mg escalated to 204 mg, 39 cycles, PCyR",10%
same,"best molecular response, BCR-ABL","one AP CML subject, Y253F, at 204 mg, 36 cycles",0.931 % IS
same,individual subject outcome,"subject at 66 mg, F317L with ACA",CCyR in cycle 7 and MMR in cycle 4
same,duration of maintained disease response at the lower dose,"subject with F317L, reduced from 66 mg to 48 mg",about 2.5 years
